Test system: MDA-MB-231 tumors
Assay: TUNEL assay for tumor apoptosis
Format: in vivo, nude mice
Conditions: tumors harvested 48 h after intratumoral injection, N=3 mice per condition
Experimental: Furthermore, we evaluated the therapeutic efficacy of Fe3O4@PLGA-DOX to the tumor. Tumor tissues of the orthotopic breast cancer mice were harvested after injection of Fe3O4@PLGA-DOX for 48 h and then sectioned for TUNEL apoptosis assay. […] Meanwhile, the fluorescence signals can also be observed in the tissue section.
MDA-MB-231 tumors on nude mice were harvested and encapsulated in Tissue-Tek® O.C.T. and then frozen. Tumor tissues embedded in were sectioned by cryostat with a thickness of 2 μm for each slice. tissue slices were treated with Click-iT™ Plus TUNEL Assay (Alexa Fluor™ 488 dye) kit for apoptosis detection. Fluorescence images of tumor tissues were captured by fluorescent microscopy. Alexa Fluor™ 488 dye was excited by 488 nm laser and the emission collecting window was 500-540 nm. The signal of DOX were excited by 488 nm laser and emission was collected at 580-630 nm.

With `COc1cccc2c1C(=O)c1c(O)c3c(c(O)c1C2=O)C[C@@](O)(C(=O)CO)C[C@@H]3O[C@H]1C[C@H](N)[C@H](O)[C@H](C)O1` [DOX, doxorubicin] the “apoptosis in tumor section (TUNEL)” value was “exhibited apoptosis”.

Reference: US20210315476A1, “Depth-independent method for in-vivo drug release monitoring and quantification based on magnetic particle imaging” (The Board of Trustees of the Leland Stanford Junior …, priority 2018, published 2021)
